The values that follow come from patent US20230391772A1, “METHODS AND COMPOSITIONS FOR TARGETED PROTEIN DEGRADATION” (Ranok Therapeutics (Hangzhou) Co. Ltd., priority 2020, published 2023).

Assay [1] has as its target T1, KRAS(G12C) (Homo sapiens, UniProt P01116, G12C). As to the kind of experiment: KRAS(G12C)/SOS1 homogeneous time-resolved fluorescence (HTRF) assay. The settings on record: absence of GTP, 4° C. for 3 hr, read-out: KRAS (G12C) binding. The arrangement: purchased Cisbio 63ADK000CB16PEG. In short, it runs like this:
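Three-hour incubation at 4 °C of 3-fold compound dilutions (lowest 1.02 nM) with KRAS(G12C), SOS1 and detection reagents, GTP absent. Disruption of the KRAS(G12C)/SOS1 complex detected by time-resolved fluorescence.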

Assay [2] concerns the target T2, HSP90a protein (Homo sapiens, UniProt P07900).
T2 construct: purchased BPS Bioscience 50298
Description: HSP90α-binding fluorescent polarization (FP) assay, BODIPY-labeled RNK04010 probe. The note with it: FP competition with RNK04010 (BODIPY-labeled), 5 nM, 300 min at 25° C. In short, it runs like this: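 Compound dilutions (20 μM to 5.2 nM, 2.5-fold) are combined with 5 nM final labeled probe, and HSP90a N-terminal protein is added last. Plates are shaken briefly and held at 25° C for 120 min (FITC-geldanamycin) or 300 min (BODIPY-RNK04010), then FP is measured.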

The target in assay [3] is T1, KRAS(G12C). As to the kind of experiment: KRAS(G12C) Western blot protein degradation assay in LU65A cells. Format: cell-based. On the set-up: LU65A human lung cancer cell line, which expresses KRAS(G12C); host or cells: LU65A. The note with it: 6 hr. In short, it runs like this: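 KRAS levels read by fluorescent Western blot (β-actin as reference) on BCA-normalized lysates. Exposure to a compound concentration range at 37 °C lasted 6 hr in LU65A and 48 hr in MIA PaCa-2; DC50 taken as half-maximal degradation concentration.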
In general terms: A western blot detects proteins with antibodies after separation by electrophoresis.

Assay [4] concerns MIA PaCa-2 human pancreatic carcinoma. Description: MIA PaCa-2 CCK-8 proliferation assay. Format: cell-based. The settings on record: Homo sapiens, MIA PaCa-2, 72 h, MIA PaCa-2 cells. In outline: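 CCK-8 absorbance readout; % inhibition = 100 − (compound − blank)/(DMSO − blank) × 100, blank = medium + DMSO, no cells. Dose range 20 μM down to 1.02 nM, 3-fold steps. KRAS(G12C) copy number: MIA PaCa-2 2; NCI-H358 1; NCI-H23 1.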

The structures appear in SMILES notation.

T1 sequence (P01116 1-188 isoform P01116-2 G12C): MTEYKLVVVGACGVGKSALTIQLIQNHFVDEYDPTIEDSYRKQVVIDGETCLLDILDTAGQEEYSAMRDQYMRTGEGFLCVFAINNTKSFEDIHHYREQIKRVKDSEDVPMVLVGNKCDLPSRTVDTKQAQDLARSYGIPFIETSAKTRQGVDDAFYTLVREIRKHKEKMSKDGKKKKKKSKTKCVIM

Take `C=CC(=O)N1CCN(c2nc(OC[C@@H]3C[C@H](N4CCC(C(=O)N5CCC6(CC5)CN(Cc5ccc(-n7c(O)nnc7-c7cc(C(C)C)c(O)cc7O)cc5)C6)CC4)CN3C)nc3c2CCN(c2cccc4cccc(Cl)c24)C3)C[C@@H]1CC#N` [Compound 350, 2-[(2S)-4-[7-(8-chloronaphthalen-1-yl)-2-{[(2S,4S)-4-{4-[2-({4-[3-(2,4-dihydroxy-5-isopropylphenyl)-5-hydroxy-1,2,4-triazol-4-yl]phenyl}methyl)-2,7-diazaspiro [3.5]nonane-7-carbonyl]piperidin-1-yl}-1-methylpyrrolidin-2-yl]methoxy}-5H,6-H,8H-pyrido[3,4-d]pyrimidin-4-yl]-1-(prop-2-enoyl)piperazin-2-yl]acetonitrile]: the IC50 in assay [1] and in assay [2] was under 100 nM each time. This molecule also showed a DC50 in assay [3] of 100 to 1000 nM. In assay [4], this molecule gave a 50% effective concentration (EC50) of 100 to 1000 nM.

For `C=CC(=O)N1CCN(c2nc(OCCN3CCN(Cc4ccc(-n5c(O)nnc5-c5cc(C(C)C)c(O)cc5O)cc4)CC3)nc3c2CCN(c2cccc4cccc(Cl)c24)C3)C[C@@H]1CC#N` [Compound 351, 2-[(2S)-4-[7-(8-chloronaphthalen-1-yl)-2-{2-[4-({4-[3-(2,4-dihydroxy-5-isopropylphenyl)-5-hydroxy-1,2,4-triazol-4-yl]phenyl}methyl)piperazin-1-yl]ethoxy}-5H,6-H,8H-pyrido[3,4-d]pyrimidin-4-yl]-1-(prop-2-enoyl)piperazin-2-yl]acetonitrile], the IC50 in assay [1] and in assay [2] was under 100 nM each time. The molecule further displayed a DC50 in assay [3] of 100 to 1000 nM. Moreover, in assay [4], the EC50 fell in the range of 100 to 1000 nM.

The DC50 is the concentration giving 50% degradation. A higher DC50 goes with a less potent degrader. A word on the EC50: it is the concentration at which the effect is half-maximal. Read a low EC50 as an effect from little substance.
